Legend:
Assay in all cases: relative viability (nuclei count vs DMSO), 5 days (fraction); higher = more cells survive
Decitabine + Lapatinib = compound: Nc1ncn([C@H]2C[C@H](O)[C@@H](CO)O2)c(=O)n1 [Decitabine] + CS(=O)(=O)CCNCc1ccc(-c2ccc3ncnc(Nc4ccc(OCc5cccc(F)c5)c(Cl)c4)c3c2)o1 [Lapatinib] (partner 2 µM)
Procedure, shortened: (§1)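 Nuclei were stained with Hoechst during a one-step fixation (final 0.05% Triton X-100, 1% formaldehyde, 1 ug/ml Hoechst) carried out 5 days after dosing, then counted on 4× images. The cells, lung cancer lines in 1536-well plates, had been dosed by pin tool the day after seeding with one drug alone or a fixed anchor-drug dose plus five library-drug doses (not always all listed) in √10 steps. Relative viability is the nuclei count in treated wells divided by that in vehicle wells, and each value is the median of duplicate plates.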

[1] = compound: O=C(C[C@H]1NCCC[C@@H]1O)Cn1cnc2cc(Br)c(Cl)cc2c1=O (racemic) [Halofuginone] + CC1(C)CCC(c2ccc(Cl)cc2)=C(CN2CCN(c3ccc(C(=O)NS(=O)(=O)c4ccc(N[C@H](CCN5CCOCC5)CSc5ccccc5)c(S(=O)(=O)C(F)(F)F)c4)cc3)CC2)C1 [Navitoclax] (partner 0.5 µM)
Procedure, shortened: as §1

[2] = compound: O=C(C[C@H]1NCCC[C@@H]1O)Cn1cnc2cc(Br)c(Cl)cc2c1=O (racemic) [Halofuginone] + C[C@]1(O)C[C@@H](c2nc(-c3ccc4ccc(-c5ccccc5)nc4c3)c3c(N)nccn32)C1 [Linsitinib] (partner 1 µM)
Procedure, shortened: as §1

Cediranib + Crizotinib = compound: COc1cc2c(Oc3ccc4[nH]c(C)cc4c3F)ncnc2cc1OCCCN1CCCC1 [Cediranib] + C[C@@H](Oc1cc(-c2cnn(C3CCNCC3)c2)cnc1N)c1c(Cl)ccc(F)c1Cl [Crizotinib] (partner 1 µM)
Procedure, shortened: as §1

Row | Cell Line | relative viability (Decitabine + Lapatinib; first compound 0.04 µM) | relative viability (Decitabine + Lapatinib; first compound 0.1265 µM) | relative viability (Decitabine + Lapatinib; first compound 0.4 µM) | relative viability (Decitabine + Lapatinib; first compound 1.265 µM) | relative viability (Decitabine + Lapatinib; first compound 4 µM) | relative viability ([1]; first compound 0.001 µM) | relative viability ([1]; first compound 0.003162 µM) | relative viability ([1]; first compound 0.01 µM) | relative viability ([1]; first compound 0.03162 µM) | relative viability ([1]; first compound 0.1 µM) | relative viability ([2]; first compound 0.001 µM) | relative viability ([2]; first compound 0.003162 µM) | relative viability ([2]; first compound 0.01 µM) | relative viability ([2]; first compound 0.03162 µM) | relative viability ([2]; first compound 0.1 µM) | relative viability (Cediranib + Crizotinib; first compound 0.04 µM) | relative viability (Cediranib + Crizotinib; first compound 0.1265 µM) | relative viability (Cediranib + Crizotinib; first compound 0.4 µM) | relative viability (Cediranib + Crizotinib; first compound 1.265 µM) | relative viability (Cediranib + Crizotinib; first compound 4 µM)
1 | NCI-H2085 | 0.628 | 0.646 | 0.446 | 0.494 | 0.445 | 1.1 | 1.25 | 1.03 | 1.02 | 0.74 | 0.863 | 1.01 | 0.864 | 0.898 | 0.627 | 0.888 | 0.927 | 0.876 | 0.813 | 0.868
2 | NCI-H2087 | 0.774 | 0.637 | 0.457 | 0.346 | 0.37 | 1.01 | 1.09 | 0.94 | 0.799 | 0.682 | 1.01 | 1.04 | 0.945 | 0.98 | 0.833 | 0.926 | 0.868 | 0.807 | 0.838 | 0.912
3 | NCI-H2126 | 0.749 | 0.781 | 0.472 | 0.564 | 0.544 | 0.87 | 0.822 | 0.824 | 0.824 | 0.831 | 0.73 | 0.671 | 0.673 | 0.71 | 0.648 | 1.04 | 1.07 | 0.986 | 0.994 | 1.01
4 | NCI-H2228 | 0.595 | 0.727 | 0.489 | 0.282 | 0.209 | 0.976 | 0.857 | 0.879 | 0.228 | 0.126 | 0.589 | 0.926 | 0.69 | 0.394 | 0.199 | 0.54 | 0.562 | 0.545 | 0.419 | 0.327
5 | NCI-H2347 | 0.895 | 0.938 | 0.793 | 0.548 | 0.633 | 0.814 | 0.838 | 0.859 | 0.845 | 0.589 | 1.06 | 1.05 | 0.902 | 1.04 | 0.777 | 0.672 | 0.698 | 0.794 | 0.865 | 0.675
6 | NCI-H2405 | 0.942 | 0.904 | 0.679 | 0.553 | 0.434 | 0.986 | 0.855 | 0.878 | 0.784 | 0.542 | 0.991 | 1.05 | 1.01 | 0.906 | 0.69 | 0.849 | 0.82 | 0.792 | 0.823 | 0.825
7 | NCI-H3122 | 1.05 | 1.03 | 1.02 | 0.816 | 0.783 | 0.994 | 1.02 | 0.966 | 1.01 | 1.05 | 1.01 | 1.04 | 0.993 | 0.952 | 0.968 | 0.259 | 0.297 | 0.277 | 0.256 | 0.275
8 | PC-3 [JPC-3] |  | 0.467 | 0.269 | 0.421 | 0.383 | 0.8 | 0.792 | 0.805 | 0.768 | 0.73 | 0.981 | 0.987 | 0.911 | 1.01 | 0.941 | 1.05 | 1.04 | 1.01 | 1.02 | 0.857
9 | PC-14 |  | 0.297 | 0.196 | 0.226 | 0.228 | 1.07 | 0.941 | 0.963 | 0.572 | 0.154 | 1.09 | 0.97 | 0.884 | 0.774 | 0.332 | 0.895 | 0.909 | 0.82 | 0.918 | 0.855
10 | RERF-LC-KJ | 0.804 | 0.894 | 0.704 | 0.717 | 0.656 | 0.987 | 1.11 | 1.05 | 0.905 | 0.699 | 0.972 | 0.932 | 0.843 | 0.891 | 0.967 | 0.875 | 0.893 | 0.799 | 0.782 | 0.752
11 | SK-LU-1 | 0.66 | 0.604 | 0.42 | 0.457 | 0.38 | 0.821 | 0.895 | 0.874 | 1.42 | 0.275 | 1.18 | 0.559 | 1.14 | 0.912 | 0.58 | 0.973 | 0.853 | 0.781 | 0.897 | 0.983
12 | SK-MES-1 | 0.463 | 0.49 | 0.406 | 0.383 | 0.286 | 1.22 | 1.16 | 1.18 | 0.67 | 0.197 | 1.14 | 1.05 | 1.01 | 0.812 | 0.552 | 1.06 | 1.05 | 0.915 | 0.963 | 1.06
13 | SW 1573 | 1.03 | 0.993 | 1.05 | 0.646 | 0.515 | 1.03 | 1.01 | 0.921 | 0.6 | 0.168 | 0.902 | 0.796 | 0.704 | 0.683 | 0.35 | 0.833 | 0.764 | 0.726 | 0.717 | 0.889

Source: the supplement of paper PMC10307832
